Structures are written as SMILES. pEC50: −log10 of the molar value.

Test [1] concerns the target T1, human M4 receptor (Homo sapiens, UniProt P08173).
T1 sequence (P08173 1-479): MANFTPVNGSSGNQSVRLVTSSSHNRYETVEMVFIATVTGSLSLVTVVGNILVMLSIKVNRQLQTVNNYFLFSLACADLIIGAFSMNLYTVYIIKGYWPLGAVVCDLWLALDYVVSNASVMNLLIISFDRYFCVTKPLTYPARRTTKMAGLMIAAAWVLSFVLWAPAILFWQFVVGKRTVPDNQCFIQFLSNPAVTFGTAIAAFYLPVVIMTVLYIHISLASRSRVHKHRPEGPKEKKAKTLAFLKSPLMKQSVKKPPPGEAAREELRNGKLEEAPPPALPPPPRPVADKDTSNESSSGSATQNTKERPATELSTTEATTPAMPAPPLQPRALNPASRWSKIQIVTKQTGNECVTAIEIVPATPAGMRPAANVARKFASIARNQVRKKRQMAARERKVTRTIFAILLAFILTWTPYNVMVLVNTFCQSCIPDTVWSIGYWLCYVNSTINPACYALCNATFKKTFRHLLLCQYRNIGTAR
As to the kind of experiment: Calcium flux assay using fluorescent imaging (M4 PAM FLIPR assay). It counts as cell-based. Further details: expressed in transfected cells; host or cells: CHO (monoclonal line, clone 2). As to conditions: Table 1; CHO cells expressing human M4+Gqi5; acetylcholine EC20. As for the experimental part:
CHO cells were transfected with expression plasmid encoding the human M4 receptor and a Gqi5 construct to redirect Gi signaling to calcium. Stable cells were cloned by limiting dilution to yield a monoclonal cell line expressing human M4+Gqi5 (clone 2). The stable cells were grown in DMEM containing 10% FBS, 200 ug/ml Geneticin and 800 ug/ml Hygromycin at 37° C. in a 10% CO2 incubator at 95% humidity.
Calcium Flux Assay Using Fluorescent Imaging (“M4 PAM FLIPR” Assay)
On the afternoon before the assay, cells were plated at a density of 50,000 cells/well into black 96 well plates with clear bottoms to yield a confluent monolayer the next day. Hanks balanced salt solution, without phenol red, containing 20 mM HEPES (pH 7.3) and 2.5 mM probenecid (assay buffer) was prepared fresh for each experiment. Compound dilutions were made using a Beckman Biomek 2000 laboratory automation workstation, in assay buffer. The dye-loading buffer consisted of a final concentration of 2 μM Fluo-4-AM (dissolved in DMSO and pluronic acid) and 65 μg/ml amidoblack in assay buffer. The existing culture media was removed from the wells and 100 μl of the dye-loading buffer was added to each well and incubated for approximately 90 min at 37° C. in a 5% CO2 incubator at 95% humidity.
Calcium flux in the dye-loaded cells was measured with the fluorescence reader Hamamatsu FDSS 7000. To test compounds as agonists, compound addition (25 μl) was made 10 s into the fluorescent measurements and fluorescent response was recorded for 3 minutes. The fluorescence data was expressed as percentage of the fluorescence obtained by an EC100 concentration (3 μM) of the endogenous full agonist acetylcholine. Each test compound concentration-response curve was constructed using a four parameter logistic equation in Microsoft Excel XLFit as follows:
Y=Minimum+((Maximum−Minimum)/(1+10^(LogEC50−X)nH)).
The concentration of agonist that produced a half-maximal response is represented by the EC50 value. Maximum and minimum are the maximum and minimum fluorescence signal in % respectively. nH is the Hill slope.
To measure positive allosteric modulator activity 25 μl of an EC20 concentration of the endogenous agonist acetylcholine is added to the cells already pre-incubated with the test compound for 15 minutes.
The M4 PAM dose response is constructed using the agonist dose-response equation above. The concentration of PAM that produced a half-maximal response is represented by the EC50 value and the maximum signal measured is the PAM efficacy expressed in % of the EC100 (3 μM) acetylcholine response. • cAMP Assay for M4 Positive Allosteric Modulators (“M4 PAM cAMP” Assay)

Test [2] deals with T1, human M4 receptor. The experiment in a line: cAMP assay for M4 positive allosteric modulators (M4 PAM cAMP assay). Further details: expressed in transfected cells; host or cells: CHO-K1. As to conditions: Table 1; CHO-K1 cells expressing human M4; forskolin 7.5 μM + acetylcholine EC20 (0.2 nM). The class given is cell-based. The method, then: The potency of M4 PAMs was determined using a cell-based cyclic adenosine monophosphate assay. The assay was performed with CHO-Kl cells stably expressing untagged human M4 receptor and cAMP was quantified using the Nano-TRF Detection Assay kit (Roche, Cat. No. 05214386) as described in the kit instructions. The cells were grown in Ham's F-12 Nutrient mix supplemented with 10% FBS and 200 μg/ml geneticin until they reached 80% confluency. The cells were washed with PBS, detached with accutase and resuspended in assay buffer consisting of HBSS and 0.1% BSA. They were then seeded in black 384-well plates (Corning, Cat. No. 3764) at a density of 20,000 cells/20 μl per well until the addition of compounds.
Test compounds were serially diluted 1:2 in 100% DMSO and spotted in 384-well plates at 0.5 μl/well. The compounds were then diluted in water containing IBMX (Sigma, Cat. No. 17018) and a sample (5 μl) was added to the cells for 15 minutes at 37° C./5% CO2. After this incubation the cells were stimulated with a combination of forskolin (7.5 μM) and acetylcholine EC20 (0.2 nM) in assay buffer for 30 minutes at 37° C./5% CO2. The assay was stopped by adding cAMP detection mix (15 μl/well, containing detergents for cell lysis) for one hour at RT.
The test plates were read using a SpectraMax i3x reader (Molecular Devices). The exported raw data was used to calculate the FRET signal based on the P-factor as per cAMP kit instructions. The data was normalized to the activity of acetylcholine plus forskolin, with 2 nM of acetylcholine plus 7.5 μM forskolin defined as 100% activity. Dose response curves were fitted to the percent activity data of the compounds using a sigmoidal dose response model (XLfit, IDBS) and the data were reported as EC50 and percent efficacy.
(Changes in cAMP serve as a functional read-out for many G protein-coupled receptors.)

As for `Cc1nc2c(c(C)c1Cl)CN(C(=O)[C@@H]1CCN(c3cnc(C#N)cn3)C1)C2` [Example 44, 5-[(3R)-3-(3-chloro-2,4-dimethyl-5,7-dihydropyrrolo[3,4-b]pyridine-6-carbonyl)pyrrolidin-1-yl]pyrazine-2-carbonitrile], the values for the pEC50 on human M4 receptor [1] and on human M4 receptor [2] were 5.95 and 5.89, respectively.

With `COCc1nc2c(c(C)c1Cl)CN(C(=O)[C@@H]1CCN(c3cccnc3)C1)C2` [Example 56, [3-chloro-2-(methoxymethyl)-4-methyl-5,7-dihydropyrrolo[3,4-b]pyridin-6-yl]-[(3R)-1-(3-pyridyl)pyrrolidin-3-yl]methanone], the pEC50 on human M4 receptor [1] is 6.31; at human M4 receptor [2] it was 7.10.

On to `Cc1nc2c(c(C)c1Cl)CN(C(=O)[C@@H]1CCN(c3ccnc(C(F)F)c3)C1)C2` [Example 20, (3-chloro-2,4-dimethyl-5,7-dihydropyrrolo[3,4-b]pyridin-6-yl)-[(3R)-1-[2-(difluoromethyl)-4-pyridyl]pyrrolidin-3-yl]methanone], for which the figures for the negative-log EC50 (pEC50) on human M4 receptor [1] and on human M4 receptor [2] were 6.74 and 7.10, respectively.

For the compound `Cc1ccncc1N1CC[C@@H](C(=O)N2Cc3nc(C)c(Cl)c(C)c3C2)C1` [Example 13, (3-chloro-2,4-dimethyl-5,7-dihydropyrrolo[3,4-b]pyridin-6-yl)-[(3R)-1-(4-methyl-3-pyridyl)pyrrolidin-3-yl]methanone], the results for the negative logarithm of the EC50 (pEC50) at human M4 receptor [1] and at human M4 receptor [2] were 6.28 and 6.17, respectively.

On to `Cc1nc2c(c(C)c1Cl)CN(C(=O)[C@@H]1CCN(c3cncc(S(C)(=O)=O)c3)C1)C2` [Example 19, (3-chloro-2,4-dimethyl-5,7-dihydropyrrolo[3,4-b]pyridin-6-yl)-[(3R)-1-(5-methylsulfonyl-3-pyridyl)pyrrolidin-3-yl]methanone], for which the values for the negative-log EC50 (pEC50) at human M4 receptor [1] and on human M4 receptor [2] were 6.35 and 6.42, respectively.

With `COc1cnc(N2CC[C@@H](C(=O)N3Cc4nc(C)c(Cl)c(C)c4C3)C2)cn1` [Example 45, (3-chloro-2,4-dimethyl-5,7-dihydropyrrolo[3,4-b]pyridin-6-yl)-[(3R)-1-(5-methoxypyrazin-2-yl)pyrrolidin-3-yl]methanone], the values for the pEC50 on human M4 receptor [1] and on human M4 receptor [2] were 6.09 and 5.86, respectively.

For `Cc1nc2c(c(C)c1Cl)CN(C(=O)[C@@H]1CCN(c3ccc(C(F)(F)F)nc3)C1)C2` [Example 9, (3-chloro-2,4-dimethyl-5,7-dihydropyrrolo[3,4-b]pyridin-6-yl)-[(3R)-1-[6-(trifluoromethyl)-3-pyridyl]pyrrolidin-3-yl]methanone], the pEC50 is 5.87 on human M4 receptor [1] and 5.97 on human M4 receptor [2].

As to `Cc1nc2c(c(C)c1Cl)CN(C(=O)[C@@H]1CCN(c3ccnnc3)C1)C2` [Example 38, (3-chloro-2,4-dimethyl-5,7-dihydropyrrolo[3,4-b]pyridin-6-yl)-[(3R)-1-pyridazin-4-ylpyrrolidin-3-yl]methanone], the results for the pEC50 on human M4 receptor [1] and on human M4 receptor [2] were 6.56 and 6.48, respectively.

Turning to `Cc1cnc(N2CC[C@@H](C(=O)N3Cc4nc(C)c(Cl)c(C)c4C3)C2)cn1` [Example 46, (3-chloro-2,4-dimethyl-5,7-dihydropyrrolo[3,4-b]pyridin-6-yl)-[(3R)-1-(5-methylpyrazin-2-yl)pyrrolidin-3-yl]methanone], the values for the pEC50 at human M4 receptor [1] and at human M4 receptor [2] were 6.21 and 6.09, respectively.

Take `Cc1nc2c(c(C)c1Cl)CN(C(=O)[C@@H]1CCN(c3ccnc(C4CC4)n3)C1)C2` [Example 6, (3-chloro-2,4-dimethyl-5,7-dihydropyrrolo[3,4-b]pyridin-6-yl)-[(3R)-1-(2-cyclopropylpyrimidin-4-yl)pyrrolidin-3-yl]methanone]: the negative-log EC50 (pEC50) on human M4 receptor [1] is 6.03; at human M4 receptor [2], 5.42.

Take `Cc1ccc(N2CC[C@@H](C(=O)N3Cc4nc(C)c(Cl)c(C)c4C3)C2)cn1` [Example 4, (3-chloro-2,4-dimethyl-5,7-dihydropyrrolo[3,4-b]pyridin-6-yl)-[(3R)-1-(6-methyl-3-pyridyl)pyrrolidin-3-yl]methanone]: the negative-log EC50 (pEC50) on human M4 receptor [1] was 6.26; at human M4 receptor [2], 6.16.

Take `CNc1ncc(N2CC[C@@H](C(=O)N3Cc4nc(C)c(Cl)c(C)c4C3)C2)cn1` [Example 35, (3-chloro-2,4-dimethyl-5,7-dihydropyrrolo[3,4-b]pyridin-6-yl)-[(3R)-1-[2-(methylamino)pyrimidin-5-yl]pyrrolidin-3-yl]methanone]: the negative logarithm of the EC50 (pEC50) on human M4 receptor [1] was 5.97; at human M4 receptor [2], 6.09.

`Cc1ncc(N2CC[C@@H](C(=O)N3Cc4nc(C)c(Cl)c(C)c4C3)C2)cn1` [Example 31, (3-chloro-2,4-dimethyl-5,7-dihydropyrrolo[3,4-b]pyridin-6-yl)-[(3R)-1-(2-methylpyrimidin-5-yl)pyrrolidin-3-yl]methanone]: the pEC50 is 6.41 at human M4 receptor [1] and 6.32 on human M4 receptor [2].

For the compound `Cc1ncccc1N1CC[C@@H](C(=O)N2Cc3nc(C)c(Cl)c(C)c3C2)C1` [Example 12, (3-chloro-2,4-dimethyl-5,7-dihydropyrrolo[3,4-b]pyridin-6-yl)-[(3R)-1-(2-methyl-3-pyridyl)pyrrolidin-3-yl]methanone], the values for the pEC50 at human M4 receptor [1] and at human M4 receptor [2] were 5.88 and 5.90, respectively.

In the case of `Cc1nc2c(c(C)c1Cl)CN(C(=O)[C@@H]1CCN(c3ccc(C(F)(F)F)nn3)C1)C2` [Example 41, (3-chloro-2,4-dimethyl-5,7-dihydropyrrolo[3,4-b]pyridin-6-yl)-[(3R)-1-[6-(trifluoromethyl)pyridazin-3-yl]pyrrolidin-3-yl]methanone], the negative logarithm of the EC50 (pEC50) is 5.70 at human M4 receptor [1] and 5.29 on human M4 receptor [2].

As to `Cc1nc2c(c(C)c1Cl)CN(C(=O)[C@@H]1CCN(c3cccnn3)C1)C2` [Example 39, (3-chloro-2,4-dimethyl-5,7-dihydropyrrolo[3,4-b]pyridin-6-yl)-[(3R)-1-pyridazin-3-ylpyrrolidin-3-yl]methanone], the negative-log EC50 (pEC50) on human M4 receptor [1] is 5.60; at human M4 receptor [2] it was 5.66.

Consider `Cc1nc2c(c(C)c1Cl)CN(C(=O)[C@@H]1CCN(c3cnc(C(F)(F)F)cn3)C1)C2` [Example 47, (3-chloro-2,4-dimethyl-5,7-dihydropyrrolo[3,4-b]pyridin-6-yl)-[(3R)-1-[5-(trifluoromethyl)pyrazin-2-yl]pyrrolidin-3-yl]methanone], for which the results for the pEC50 at human M4 receptor [1] and on human M4 receptor [2] were 6.04 and 5.74, respectively.

By pEC50 is commonly meant the EC50 on a negative log10 scale, so that one unit is a factor of ten.
